# Literature values, collected in patent US20180110725A1, “COMPOSITIONS, METHODS AND KITS FOR THE SAFE INHALED DELIVERY OF TARGETED OPIOIDS FOR THE TREATMENT OF PAIN AND ADDICTION” (Somniferum Labs LLC, priority 2016, published 2018).
# Columns and labels:
# [1] = target: μ-1 opioid receptor (Homo sapiens, UniProt P35372); conditions: Wittwer and Kern, 2006
# [2] = room temperature
# [3] = in vivo
# μ-1 opioid receptor, sequence (P35372 whole entry): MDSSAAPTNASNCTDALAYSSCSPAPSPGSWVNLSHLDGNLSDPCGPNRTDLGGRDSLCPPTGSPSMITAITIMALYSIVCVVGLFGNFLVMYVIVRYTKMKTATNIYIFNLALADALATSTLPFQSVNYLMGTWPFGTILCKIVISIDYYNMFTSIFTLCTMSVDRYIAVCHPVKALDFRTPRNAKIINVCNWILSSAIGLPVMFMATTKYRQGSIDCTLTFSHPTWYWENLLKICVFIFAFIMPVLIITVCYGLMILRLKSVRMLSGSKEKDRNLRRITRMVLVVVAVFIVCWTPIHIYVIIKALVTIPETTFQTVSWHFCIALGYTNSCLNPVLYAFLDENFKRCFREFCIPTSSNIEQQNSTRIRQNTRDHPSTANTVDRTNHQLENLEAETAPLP
Molecule,duration of activity [3],further results
CN1CC[C@]23c4c5ccc(O)c4O[C@H]2[C@@H](O[C@@H]2O[C@H](C(=O)O)[C@@H](O)[C@H](O)[C@H]2O)C=C[C@H]3[C@H]1C5 [Morphine-6-glucuronide],–,potency relative to morphine [1]: higher potency than morphine
Br.CN1CC[C@]23c4c5ccc(O)c4O[C@H]2[C@@H](O[C@@H]2O[C@H](C(=O)O)[C@@H](O)[C@H](O)[C@H]2O)C=C[C@H]3[C@H]1C5 [Morphine-6 glucuronide bromide],–,storage time with little or no degradation [2]: up to 6 years
CC(=O)O.CN1CCC23c4c5ccc(O)c4OC2C(OC2OC(C(=O)O)C(O)C(O)C2O)C=CC3C1C5 (stereo not shown) [morphine-6-glucuronide acetate],relatively long duration of activity,–
morphine-6-glucuronide sulfate,relatively long duration of activity,–
